Experimental data: ChEMBL document CHEMBL5723582, “Data for DCP probe T-10430” (2024)

Legend:
Details in all cases: Compound concentration 1.0 uM
[1] = molecular target: Alpha-1A adrenergic receptor (Homo sapiens) (UniProt P35348); test: RLU of ADRA1A at 1.0 µM in the […] PRESTO-Tango GPCRome screen
[2] = molecular target: Mas-related G-protein coupled receptor member X2 (Homo sapiens) (UniProt Q96LB1); test: RLU of MRGPRX2 at 1.0 µM in the […] PRESTO-Tango GPCRome screen
[3] = molecular target: Probable G-protein coupled receptor 19 (Homo sapiens) (UniProt Q15760); test: RLU of GPR19 at 1.0 µM in the […] PRESTO-Tango GPCRome screen
[4] = molecular target: Putative adhesion G protein-coupled receptor F2P (Homo sapiens) (UniProt Q8IZF7); test: RLU of GPR111 at 1.0 µM in the […] PRESTO-Tango GPCRome screen
[5] = molecular target: Hydroxycarboxylic acid receptor 2 (Homo sapiens) (UniProt Q8TDS4); test: RLU of HCA2 at 1.0 µM in the Aequorin PRESTO-Tango GPCRome screen
[6] = molecular target: Gastric inhibitory polypeptide receptor (Homo sapiens) (UniProt P48546); test: RLU of GIPR at 1.0 µM in the […] PRESTO-Tango GPCRome screen
[7] = molecular target: G-protein coupled receptor 171 (Homo sapiens) (UniProt O14626); test: RLU of GPR171 at 1.0 µM in the […] PRESTO-Tango GPCRome screen
[8] = molecular target: Neuromedin-K receptor (Homo sapiens) (UniProt P29371); test: RLU of TACR3 at 1.0 µM in the […] PRESTO-Tango GPCRome screen
[9] = molecular target: Somatostatin receptor type 2 (Homo sapiens) (UniProt P30874); test: RLU of SSTR2 at 1.0 µM in the […] PRESTO-Tango GPCRome screen
[10] = molecular target: Free fatty acid receptor 1 (Homo sapiens) (UniProt O14842); test: RLU of FFA1 (GPR40) at 1.0 µM in the […] PRESTO-Tango GPCRome screen
[11] = molecular target: Probable G-protein coupled receptor 141 (Homo sapiens) (UniProt Q7Z602); test: RLU of GPR141 at 1.0 µM in the […] PRESTO-Tango GPCRome screen
[12] = molecular target: Mas-related G-protein coupled receptor member X1 (Homo sapiens) (UniProt Q96LB2); test: RLU of MRGPRX1 at 1.0 µM in the […] PRESTO-Tango GPCRome screen
[13] = molecular target: Secretin receptor (Homo sapiens) (UniProt P47872); test: RLU of SCTR at 1.0 µM in the […] PRESTO-Tango GPCRome screen
[14] = molecular target: C5a anaphylatoxin chemotactic receptor 1 (Homo sapiens) (UniProt P21730); test: RLU of C5A at 1.0 µM in the […] PRESTO-Tango GPCRome screen
[15] = molecular target: Vasopressin V1b receptor (Homo sapiens) (UniProt P47901); test: RLU of AVPR1B at 1.0 µM in the […] PRESTO-Tango GPCRome screen
[16] = molecular target: Cholecystokinin receptor type A (Homo sapiens) (UniProt P32238); test: RLU of CCKAR at 1.0 µM in the […] PRESTO-Tango GPCRome screen
[17] = molecular target: Chemerin-like receptor 1 (Homo sapiens) (UniProt Q99788); test: RLU of CMKLR1 at 1.0 µM in the […] PRESTO-Tango GPCRome screen
[18] = molecular target: G-protein coupled receptor 62 (Homo sapiens) (UniProt Q9BZJ7); test: RLU of GPR62 at 1.0 µM in the […] PRESTO-Tango GPCRome screen
[19] = molecular target: Galanin receptor type 3 (Homo sapiens) (UniProt O60755); test: RLU of GAL3 at 1.0 µM in the […] PRESTO-Tango GPCRome screen
[20] = molecular target: Somatostatin receptor type 1 (Homo sapiens) (UniProt P30872); test: RLU of SSTR1 at 1.0 µM in the […] PRESTO-Tango GPCRome screen
[21] = molecular target: Somatostatin receptor type 3 (Homo sapiens) (UniProt P32745); test: RLU of SSTR3 at 1.0 µM in the […] PRESTO-Tango GPCRome screen
[22] = molecular target: C3a anaphylatoxin chemotactic receptor (Homo sapiens) (UniProt Q16581); test: RLU of C3AR1 at 1.0 µM in the […] PRESTO-Tango GPCRome screen
[23] = molecular target: Lutropin-choriogonadotropic hormone receptor (Homo sapiens) (UniProt P22888); test: RLU of LHCGR at 1.0 µM in the […] PRESTO-Tango GPCRome screen
[24] = molecular target: G-protein coupled receptor 151 (Homo sapiens) (UniProt Q8TDV0); test: RLU of GPR151 at 1.0 µM in the […] PRESTO-Tango GPCRome screen
[25] = molecular target: Neuropeptides B/W receptor type 1 (Homo sapiens) (UniProt P48145); test: RLU of NPBW1 at 1.0 µM in the […] PRESTO-Tango GPCRome screen
[26] = molecular target: Neuropeptide FF receptor 1 (Homo sapiens) (UniProt Q9GZQ6); test: RLU of NPFF1 at 1.0 µM in the […] PRESTO-Tango GPCRome screen
[27] = molecular target: Endothelin receptor type B (Homo sapiens) (UniProt P24530); test: RLU of EDNRB at 1.0 µM in the […] PRESTO-Tango GPCRome screen
[28] = molecular target: G-protein coupled receptor 87 (Homo sapiens) (UniProt Q9BY21); test: RLU of GPR87 at 1.0 µM in the […] PRESTO-Tango GPCRome screen
[29] = molecular target: Vasopressin V2 receptor (Homo sapiens) (UniProt P30518); test: RLU of AVPR2 at 1.0 µM in the […] PRESTO-Tango GPCRome screen
[30] = molecular target: D(3) dopamine receptor (Homo sapiens) (UniProt P35462); test: RLU of DRD3 at 1.0 µM in the […] PRESTO-Tango GPCRome screen
[31] = molecular target: Thromboxane A2 receptor (Homo sapiens) (UniProt P21731); test: RLU of TBXA2R at 1.0 µM in the […] PRESTO-Tango GPCRome screen
[32] = molecular target: Adhesion G-protein coupled receptor G6 (Homo sapiens) (UniProt Q86SQ4); test: RLU of GPR126 at 1.0 µM in the […] PRESTO-Tango GPCRome screen
[33] = molecular target: B2 bradykinin receptor (Homo sapiens) (UniProt P30411); test: RLU of BDKRB2 at 1.0 µM in the […] PRESTO-Tango GPCRome screen
[34] = molecular target: Trace amine-associated receptor 2 (Homo sapiens) (UniProt Q9P1P5); test: RLU of TAAR2 at 1.0 µM in the […] PRESTO-Tango GPCRome screen
[35] = molecular target: Growth hormone secretagogue receptor type 1 (Homo sapiens) (UniProt Q92847); test: RLU of GHSR at 1.0 µM in the […] PRESTO-Tango GPCRome screen

B2 bradykinin receptor (Homo sapiens), sequence (P30411 whole entry): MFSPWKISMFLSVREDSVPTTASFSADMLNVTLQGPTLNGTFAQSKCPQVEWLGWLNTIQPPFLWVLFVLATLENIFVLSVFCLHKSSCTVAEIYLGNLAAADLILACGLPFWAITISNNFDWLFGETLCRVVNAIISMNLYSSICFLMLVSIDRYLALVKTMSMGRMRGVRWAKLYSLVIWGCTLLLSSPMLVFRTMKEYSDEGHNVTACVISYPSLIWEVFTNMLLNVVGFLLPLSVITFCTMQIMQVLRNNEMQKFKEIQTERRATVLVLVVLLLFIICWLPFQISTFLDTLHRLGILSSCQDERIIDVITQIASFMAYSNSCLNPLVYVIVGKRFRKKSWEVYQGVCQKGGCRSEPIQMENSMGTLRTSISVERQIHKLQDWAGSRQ
Cholecystokinin receptor type A (Homo sapiens), sequence (P32238 whole entry): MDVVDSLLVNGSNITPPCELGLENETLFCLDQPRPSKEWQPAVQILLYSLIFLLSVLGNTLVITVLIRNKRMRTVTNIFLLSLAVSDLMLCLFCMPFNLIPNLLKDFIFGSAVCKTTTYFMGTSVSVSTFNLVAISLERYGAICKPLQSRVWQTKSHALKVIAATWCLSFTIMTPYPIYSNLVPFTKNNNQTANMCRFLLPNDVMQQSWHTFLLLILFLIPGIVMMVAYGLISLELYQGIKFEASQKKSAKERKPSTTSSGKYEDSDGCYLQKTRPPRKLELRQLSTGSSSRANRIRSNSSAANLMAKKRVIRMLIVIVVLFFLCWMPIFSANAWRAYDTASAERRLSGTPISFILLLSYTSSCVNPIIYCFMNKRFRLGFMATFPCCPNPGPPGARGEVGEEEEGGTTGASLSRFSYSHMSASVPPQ
Putative adhesion G protein-coupled receptor F2P (Homo sapiens), sequence (Q8IZF7 whole entry): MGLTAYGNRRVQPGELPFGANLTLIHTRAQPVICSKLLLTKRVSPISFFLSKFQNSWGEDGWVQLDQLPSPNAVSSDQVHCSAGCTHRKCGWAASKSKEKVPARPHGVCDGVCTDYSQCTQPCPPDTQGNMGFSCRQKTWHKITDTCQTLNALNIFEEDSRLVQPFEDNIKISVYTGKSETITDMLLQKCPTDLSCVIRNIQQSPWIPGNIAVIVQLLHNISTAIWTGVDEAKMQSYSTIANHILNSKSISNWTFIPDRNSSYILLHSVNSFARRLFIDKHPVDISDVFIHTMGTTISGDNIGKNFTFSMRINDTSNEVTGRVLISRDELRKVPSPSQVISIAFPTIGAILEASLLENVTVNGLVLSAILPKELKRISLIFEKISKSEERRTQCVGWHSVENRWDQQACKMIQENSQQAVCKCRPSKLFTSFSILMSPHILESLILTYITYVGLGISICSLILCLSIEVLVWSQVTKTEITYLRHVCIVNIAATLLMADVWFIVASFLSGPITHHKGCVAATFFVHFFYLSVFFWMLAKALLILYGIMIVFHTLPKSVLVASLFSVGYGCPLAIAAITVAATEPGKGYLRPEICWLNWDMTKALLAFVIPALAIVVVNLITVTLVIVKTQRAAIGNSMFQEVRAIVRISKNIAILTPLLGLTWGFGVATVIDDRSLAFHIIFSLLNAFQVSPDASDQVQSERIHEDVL
Adhesion G-protein coupled receptor G6 (Homo sapiens), sequence (Q86SQ4 whole entry): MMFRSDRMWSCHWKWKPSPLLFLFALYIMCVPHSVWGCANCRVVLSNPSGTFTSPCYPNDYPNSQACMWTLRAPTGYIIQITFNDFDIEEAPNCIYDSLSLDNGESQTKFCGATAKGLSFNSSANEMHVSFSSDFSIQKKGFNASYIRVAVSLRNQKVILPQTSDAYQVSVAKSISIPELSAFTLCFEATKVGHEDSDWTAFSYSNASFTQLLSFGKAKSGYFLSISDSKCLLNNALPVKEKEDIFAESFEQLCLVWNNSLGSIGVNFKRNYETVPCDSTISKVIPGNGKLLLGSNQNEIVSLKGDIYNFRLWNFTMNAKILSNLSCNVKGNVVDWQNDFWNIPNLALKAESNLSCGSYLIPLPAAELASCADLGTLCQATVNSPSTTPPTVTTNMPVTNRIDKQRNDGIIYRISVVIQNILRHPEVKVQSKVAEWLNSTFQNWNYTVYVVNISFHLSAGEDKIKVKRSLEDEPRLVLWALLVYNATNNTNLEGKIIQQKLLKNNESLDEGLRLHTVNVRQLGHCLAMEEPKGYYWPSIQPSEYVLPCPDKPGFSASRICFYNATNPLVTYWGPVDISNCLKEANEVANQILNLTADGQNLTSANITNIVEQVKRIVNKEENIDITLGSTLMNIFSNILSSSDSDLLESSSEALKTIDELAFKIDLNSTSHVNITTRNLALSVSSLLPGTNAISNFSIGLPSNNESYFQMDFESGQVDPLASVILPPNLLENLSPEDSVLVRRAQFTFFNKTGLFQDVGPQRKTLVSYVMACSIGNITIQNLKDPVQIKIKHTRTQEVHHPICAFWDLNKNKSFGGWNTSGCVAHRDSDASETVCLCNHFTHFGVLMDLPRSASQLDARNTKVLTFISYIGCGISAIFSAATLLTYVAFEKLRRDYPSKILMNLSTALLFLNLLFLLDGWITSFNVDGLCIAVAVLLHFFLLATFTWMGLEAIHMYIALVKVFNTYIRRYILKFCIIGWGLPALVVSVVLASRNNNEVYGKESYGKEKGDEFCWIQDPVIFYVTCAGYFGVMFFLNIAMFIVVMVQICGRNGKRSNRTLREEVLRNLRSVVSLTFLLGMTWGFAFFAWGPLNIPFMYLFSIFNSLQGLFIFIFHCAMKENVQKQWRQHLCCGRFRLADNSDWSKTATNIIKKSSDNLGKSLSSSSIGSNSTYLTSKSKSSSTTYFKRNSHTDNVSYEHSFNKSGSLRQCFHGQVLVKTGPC
G-protein coupled receptor 62 (Homo sapiens), sequence (Q9BZJ7 whole entry): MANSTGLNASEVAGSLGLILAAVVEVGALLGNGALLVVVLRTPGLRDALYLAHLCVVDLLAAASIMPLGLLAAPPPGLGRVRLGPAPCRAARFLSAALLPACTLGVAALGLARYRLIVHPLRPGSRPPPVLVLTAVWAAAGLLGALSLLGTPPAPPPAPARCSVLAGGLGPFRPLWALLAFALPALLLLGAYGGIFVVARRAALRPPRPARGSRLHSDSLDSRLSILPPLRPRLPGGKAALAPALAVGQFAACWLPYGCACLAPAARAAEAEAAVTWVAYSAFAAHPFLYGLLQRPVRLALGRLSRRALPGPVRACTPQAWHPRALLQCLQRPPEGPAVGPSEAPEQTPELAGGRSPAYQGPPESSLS
Mas-related G-protein coupled receptor member X2 (Homo sapiens), sequence (Q96LB1 whole entry): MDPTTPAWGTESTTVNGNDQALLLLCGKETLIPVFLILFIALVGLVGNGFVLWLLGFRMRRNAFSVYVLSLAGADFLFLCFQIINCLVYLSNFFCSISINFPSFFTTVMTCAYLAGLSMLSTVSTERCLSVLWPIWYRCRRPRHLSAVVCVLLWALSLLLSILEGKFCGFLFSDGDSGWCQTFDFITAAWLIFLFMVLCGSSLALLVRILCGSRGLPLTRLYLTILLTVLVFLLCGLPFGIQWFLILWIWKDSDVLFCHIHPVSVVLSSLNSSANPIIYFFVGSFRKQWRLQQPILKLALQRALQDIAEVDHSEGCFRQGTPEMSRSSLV
Gastric inhibitory polypeptide receptor (Homo sapiens), sequence (P48546 whole entry): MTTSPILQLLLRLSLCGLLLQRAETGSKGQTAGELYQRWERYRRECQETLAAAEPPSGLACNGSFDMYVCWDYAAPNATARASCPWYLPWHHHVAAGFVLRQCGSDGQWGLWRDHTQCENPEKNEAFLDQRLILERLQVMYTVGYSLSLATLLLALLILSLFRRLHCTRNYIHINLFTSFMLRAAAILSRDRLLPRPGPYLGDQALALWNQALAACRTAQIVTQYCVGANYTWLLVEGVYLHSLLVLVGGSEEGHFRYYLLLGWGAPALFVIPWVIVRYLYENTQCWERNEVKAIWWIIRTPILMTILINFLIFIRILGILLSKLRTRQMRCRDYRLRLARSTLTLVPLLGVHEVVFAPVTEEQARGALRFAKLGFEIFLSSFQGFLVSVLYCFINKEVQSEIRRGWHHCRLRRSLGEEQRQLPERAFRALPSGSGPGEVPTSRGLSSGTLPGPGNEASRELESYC
Free fatty acid receptor 1 (Homo sapiens), sequence (O14842 whole entry): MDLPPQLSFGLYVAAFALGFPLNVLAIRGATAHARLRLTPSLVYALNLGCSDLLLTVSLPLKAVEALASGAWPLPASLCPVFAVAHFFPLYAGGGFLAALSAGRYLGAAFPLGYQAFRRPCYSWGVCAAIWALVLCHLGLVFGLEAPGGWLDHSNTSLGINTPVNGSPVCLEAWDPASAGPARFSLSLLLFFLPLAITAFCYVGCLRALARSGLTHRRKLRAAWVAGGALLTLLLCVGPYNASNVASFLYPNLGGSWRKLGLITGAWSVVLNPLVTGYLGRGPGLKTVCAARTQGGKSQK
Probable G-protein coupled receptor 19 (Homo sapiens), sequence (Q15760 whole entry): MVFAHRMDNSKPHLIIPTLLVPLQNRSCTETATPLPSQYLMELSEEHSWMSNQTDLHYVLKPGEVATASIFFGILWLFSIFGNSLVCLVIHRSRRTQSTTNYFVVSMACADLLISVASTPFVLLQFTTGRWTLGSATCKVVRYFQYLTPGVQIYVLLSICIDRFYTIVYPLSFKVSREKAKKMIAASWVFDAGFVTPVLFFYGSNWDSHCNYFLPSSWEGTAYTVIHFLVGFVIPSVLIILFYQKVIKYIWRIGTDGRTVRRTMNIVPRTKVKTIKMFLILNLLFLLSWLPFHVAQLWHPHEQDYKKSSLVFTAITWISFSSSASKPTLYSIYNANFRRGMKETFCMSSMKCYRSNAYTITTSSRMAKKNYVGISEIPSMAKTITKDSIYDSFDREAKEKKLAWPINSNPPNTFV
Galanin receptor type 3 (Homo sapiens), sequence (O60755 whole entry): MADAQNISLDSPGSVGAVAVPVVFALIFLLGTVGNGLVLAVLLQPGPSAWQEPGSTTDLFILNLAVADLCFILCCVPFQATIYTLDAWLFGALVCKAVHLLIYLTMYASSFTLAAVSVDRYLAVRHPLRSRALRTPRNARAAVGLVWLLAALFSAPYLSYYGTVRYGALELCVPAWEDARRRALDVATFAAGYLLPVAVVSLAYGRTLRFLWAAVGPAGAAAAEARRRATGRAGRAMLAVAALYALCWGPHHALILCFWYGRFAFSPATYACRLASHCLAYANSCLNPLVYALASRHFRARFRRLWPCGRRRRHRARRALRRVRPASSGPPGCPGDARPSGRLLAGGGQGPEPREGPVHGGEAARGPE

CCCCC(=O)N1CC2(C1)CN(c1ccccc1-c1nnn[nH]1)C2 gave an RLU [1] of 8350, an RLU [2] of -9420 and an RLU [3] of 1530. For the same molecule, the RLU [4] was -1360, the RLU [5] was -133 and the RLU [6] was -1500. It also gave an RLU [7] of -3250, an RLU [8] of 550 and an RLU [9] of -163. It also gave an RLU [10] of 2090, an RLU [11] of 2790 and an RLU [12] of 319. It also gave an RLU [13] of -71.4, an RLU [14] of 2280 and an RLU [15] of -688. For the same molecule, the RLU [16] was 2840, the RLU [17] was -333 and the RLU [18] was 477000. The RLU [19] was -1500, the RLU [20] was -1070 and the RLU [21] was 342. It also gave an RLU [22] of 4830, an RLU [23] of 154 and an RLU [24] of 12900. It also gave an RLU [25] of 4940, an RLU [26] of 4030 and an RLU [27] of -88.5. The RLU [28] was 8750, the RLU [29] was 2870 and the RLU [30] was 1160. The RLU [31] was 233, the RLU [32] was -6500 and the RLU [33] was 892. For the same molecule, the RLU [34] was 390 and the RLU [35] was 1260.
